Data as given in US12139492B2 (Endotarget Inc., priority 2021, dated 2024).
Where two headings read alike, the source gives them in different places.

Tests used:
BTK = BTK (Homo sapiens, UniProt Q06187); experiment: Degradation of BTK protein in Namalwa cells (Western blot; DC50, Dmax); details: for DC50: cell line not given
JeKo-1 cells = experiment: Antiproliferative effect, MTS cell viability assay, JeKo-1 cells; type: cell-based; details: Homo sapiens; JeKo-1 mantle cell lymphoma cells; read-out: IC50 (anti-proliferation) JeKO-1 cells
How it was run: (§1)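 Tested at six concentrations (0 to 10 μM in tenfold steps), 72 h; viability by MTS, A490.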

Mino cells = experiment: Antiproliferative effect, MTS cell viability assay, Mino cells; type: cell-based; details: Homo sapiens, MINO, Mino mantle cell lymphoma cells; read-out: IC50 (anti-proliferation) Mino cells
How it was run: as §1

[1] = read-out: DC50 (BTK degradation), concentration giving 50% reduction of BTK expression level
[2] = read-out: Dmax (BTK degradation)

Chain of BTK (Q06187 whole entry): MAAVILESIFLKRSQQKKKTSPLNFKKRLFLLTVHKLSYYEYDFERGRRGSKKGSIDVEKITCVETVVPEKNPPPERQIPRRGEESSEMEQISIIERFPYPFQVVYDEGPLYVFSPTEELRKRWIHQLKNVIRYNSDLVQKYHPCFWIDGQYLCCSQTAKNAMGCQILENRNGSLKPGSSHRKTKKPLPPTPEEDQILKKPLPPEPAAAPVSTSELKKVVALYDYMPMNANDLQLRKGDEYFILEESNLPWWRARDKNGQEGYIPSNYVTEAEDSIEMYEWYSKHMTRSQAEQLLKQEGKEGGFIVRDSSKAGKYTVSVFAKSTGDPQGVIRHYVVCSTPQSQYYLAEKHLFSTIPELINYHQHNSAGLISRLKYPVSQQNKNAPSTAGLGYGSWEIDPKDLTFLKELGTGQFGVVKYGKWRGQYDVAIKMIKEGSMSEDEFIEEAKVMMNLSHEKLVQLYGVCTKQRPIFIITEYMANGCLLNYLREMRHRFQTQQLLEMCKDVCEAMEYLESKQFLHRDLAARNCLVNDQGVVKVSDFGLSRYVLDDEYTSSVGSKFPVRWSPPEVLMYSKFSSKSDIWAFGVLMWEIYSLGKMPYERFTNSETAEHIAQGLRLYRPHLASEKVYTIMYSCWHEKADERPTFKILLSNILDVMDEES

| Dmax (BTK) [%] | DC50 (BTK; BTK degradation) [nM] | DC50 (BTK; [1]) [nM] | Dmax (BTK; [2]) [%] | SMILES | IC50 (JeKo-1 cells) [nM] | IC50 (Mino cells) [nM] |
| --- | --- | --- | --- | --- | --- | --- |
| > 75 | 10 to 50 | – | – | Nc1ncnc2c1c(-c1ccc(Oc3ccccc3)cc1)nn2C1CCN(C2CCN(C(=O)N3CCN(CCC4CCN(c5ccc6c(c5)CN(C5CCC(=O)NC5=O)C6=O)CC4)CC3)CC2)CC1 (centres unmarked) [Compound 248] | 1000 to 10000 | < 1000 |
| > 90 | 10 to 50 | – | – | Nc1ncnc2c1c(-c1ccc(Oc3ccccc3)cc1)nn2C1CCN(C2CCN(CCCN3CCN(c4ccc5c(c4)CN(C4CCC(=O)NC4=O)C5=O)CC3)CC2)CC1 (centres unmarked) [Compound 222, 3-(5-(4-(3-(4-(4-amino-3-(4-phenoxyphenyl)-1H-pyrazolo[3,4-d]pyrimidin-1-yl)-[1,4′-bipiperidin]-1′-yl)propyl)piperazin-1-yl)-1-oxoisoindolin-2-yl)piperidine-2,6-dione] | 1000 to 10000 | 1000 to 10000 |
| > 75 | 10 to 50 | – | – | Nc1ncnc2c1c(-c1ccc(Oc3ccccc3)cc1)nn2C1CCN(C2CCN(CCCC3CCN(c4ccc5c(c4)CN(C4CCC(=O)NC4=O)C5=O)CC3)CC2)CC1 (centres unmarked) [Compound 226, 3-(5-(4-(3-(4-(4-amino-3-(4-phenoxyphenyl)-1H-pyrazolo[3,4-d]pyrimidin-1-yl)-[1,4′-bipiperidin]-1′-yl)propyl)piperidin-1-yl)-1-oxoisoindolin-2-yl)piperidine-2,6-dione] | > 10000 | 1000 to 10000 |
| > 75 | > 50 | – | – | NC(=O)c1c(-c2ccc(Oc3ccccc3)cc2)nn2c1NCC[C@H]2C1CCN(CC2CCN(CCN3CCN(c4ccc5c(c4)C(=O)N(C4CCC(=O)NC4=O)C5=O)CC3)CC2)CC1 (stereo partly drawn) [Compound 331, (7S)-7-(1-((1-(2-(4-(2-(2,6-dioxopiperidin-3-yl)-1,3-dioxoisoindolin-5-yl)piperazin-1-yl)ethyl)piperidin-4-yl)methyl)piperidin-4-yl)-2-(4-phenoxyphenyl)-4,5,6,7-tetrahydropyrazolo[1,5-a]pyrimidine-3-carboxamide] | 1000 to 10000 | > 10000 |
| – | – | 10 to 50 | > 75 | NC(=O)c1c(-c2ccc(Oc3ccccc3)cc2)nn2c1NCC[C@H]2C1CCN(CC2CCN(C(=O)N3CCC(N4CCC(c5ccc6c(c5)C(=O)N(C5CCC(=O)NC5=O)C6=O)CC4)CC3)CC2)CC1 (stereo partly drawn) [Compound 407, (7S)-7-(1-((1-(4-(2-(2,6-dioxopiperidin-3-yl)-1,3-dioxoisoindolin-5-yl)-[1,4′-bipiperidine]-1′-carbonyl)piperidin-4-yl)methyl)piperidin-4-yl)-2-(4-phenoxyphenyl)-4,5,6,7-tetrahydropyrazolo[1,5-a]pyrimidine-3-carboxamide] | > 10000 | 1000 to 10000 |
| – | – | 10 to 50 | > 90 | NC1=NC=NC2C1C(c1ccc(Oc3ccccc3)cc1)=NN2C1CCN(C(=O)N2CC(C3CN(c4ccc5c(c4)C(=O)N(C4CCC(=O)NC4=O)C5=O)C3)C2)CC1 (centres unmarked) [Compound 493, 5-(1′-(4-(4-amino-3-(4-phenoxyphenyl)-3a,7a-dihydro-1H-pyrazolo[3,4-d]pyrimidin-1-yl)piperidine-1-carbonyl)-[3,3′-biazetidin]-1-yl)-2-(2,6-dioxopiperidin-3-yl)isoindoline-1,3-dione] | < 1000 | < 1000 |
| – | – | > 50 | > 50 | Nc1ncnc2c1c(-c1ccc(Oc3ccccc3)cc1)nn2C1CCN(CCCC#Cc2ccc(N3CCC(=O)NC3=O)cc2)CC1 [Compound 538, 1-(4-(5-(4-(4-amino-3-(4-phenoxyphenyl)-1H-pyrazolo[3,4-d]pyrimidin-1-yl)piperidin-1-yl)pent-1-yn-1-yl)phenyl)dihydropyrimidine-2,4(1H,3H)-dione] | > 10000 | > 10000 |
| > 90 | < 10 | – | – | NC(=O)c1c(-c2ccc(Oc3ccccc3)cc2)nn2c1NCCC2C1CCN(C2CCN(C(=O)N3CCN(C4CCN(c5ccc6c(c5)CN(C5CCC(=O)NC5=O)C6=O)CC4)CC3)CC2)CC1 (centres unmarked) [Compound 346, 7-(1′-(4-(1-(2-(2,6-dioxopiperidin-3-yl)-1-oxoisoindolin-5-yl)piperidin-4-yl)piperazine-1-carbonyl)-[1,4′-bipiperidin]-4-yl)-2-(4-phenoxyphenyl)-4,5,6,7-tetrahydropyrazolo[1,5-a]pyrimidine-3-carboxamide] | 1000 to 10000 | < 1000 |
| > 90 | 10 to 50 | – | – | NC(=O)c1c(-c2ccc(Oc3ccccc3)cc2)nn2c1NCC[C@H]2C1CCN(CCOCCOCCN2CCN(c3ccc4c(c3)CN(C3CCC(=O)NC3=O)C4=O)CC2)CC1 (stereo partly drawn) [Compound 272, (7S)-7-(1-(2-(2-(2-(4-(2-(2,6-dioxopiperidin-3-yl)-1-oxoisoindolin-5-yl)piperazin-1-yl)ethoxy)ethoxy)ethyl)piperidin-4-yl)-2-(4-phenoxyphenyl)-4,5,6,7-tetrahydropyrazolo[1,5-a]pyrimidine-3-carboxamide] | > 10000 | 1000 to 10000 |
| – | – | 10 to 50 | > 90 | Nc1ncnc2c1c(-c1ccc(Oc3ccccc3)cc1)nn2C1CCN(CC2CCN(CC3CN(c4ccc5c(c4)CN(C4CCC(=O)NC4=O)C5=O)C3)C2)CC1 (centres unmarked) [Compound 424, 3-(5-(3-((3-((4-(4-amino-3-(4-phenoxyphenyl)-1H-pyrazolo[3,4-d]pyrimidin-1-yl)piperidin-1-yl)methyl)pyrrolidin-1-yl)methyl)azetidin-1-yl)-1-oxoisoindolin-2-yl)piperidine-2,6-dione] | < 1000 | < 1000 |
| > 75 | 10 to 50 | – | – | NC(=O)c1c(-c2ccc(Oc3ccccc3)cc2)nn2c1NCCC2C1CCN(CC2CCN(CCN3CCC(c4ccc5c(c4)C(=O)N(C4CCC(=O)NC4=O)C5=O)CC3)CC2)CC1 (centres unmarked) [Compound 319, 7-(1-((1-(2-(4-(2-(2,6-dioxopiperidin-3-yl)-1,3-dioxoisoindolin-5-yl)piperidin-1-yl)ethyl)piperidin-4-yl)methyl)piperidin-4-yl)-2-(4-phenoxyphenyl)-4,5,6,7-tetrahydropyrazolo[1,5-a]pyrimidine-3-carboxamide] | > 10000 | 1000 to 10000 |
| – | – | > 50 | > 50 | Nc1ncnc2c1c(-c1ccc(Oc3ccccc3)cc1)nn2C1CCN(CCCCC#Cc2ccc(N3CCC(=O)NC3=O)cc2)CC1 [Compound 539, 1-(4-(6-(4-(4-amino-3-(4-phenoxyphenyl)-1H-pyrazolo[3,4-d]pyrimidin-1-yl)piperidin-1-yl)hex-1-yn-1-yl)phenyl)dihydropyrimidine-2,4(1H,3H)-dione] | > 10000 | > 10000 |
| > 90 | 10 to 50 | – | – | Nc1ncnc2c1c(-c1ccc(Oc3ccccc3)cc1)nn2C1CCN(CC2CCN(CCN3CCC(c4ccc5c(c4)CN(C4CCC(=O)NC4=O)C5=O)CC3)CC2)CC1 (centres unmarked) [Compound 206, 3-(5-(1-(2-(4-((4-(4-amino-3-(4-phenoxyphenyl)-1H-pyrazolo[3,4-d]pyrimidin-1-yl)piperidin-1-yl)methyl)piperidin-1-yl)ethyl)piperidin-4-yl)-1-oxoisoindolin-2-yl)piperidine-2,6-dione] | < 1000 | < 1000 |
| > 75 | 10 to 50 | – | – | NC(=O)c1c(-c2ccc(Oc3ccccc3)cc2)nn2c1NCC[C@H]2C1CCN(CC2CCN(CCC3CCN(c4ccc5c(c4)CN(C4CCC(=O)NC4=O)C5=O)CC3)CC2)CC1 (stereo partly drawn) [Compound 334, (7S)-7-(1-((1-(2-(1-(2-(2,6-dioxopiperidin-3-yl)-1-oxoisoindolin-5-yl)piperidin-4-yl)ethyl)piperidin-4-yl)methyl)piperidin-4-yl)-2-(4-phenoxyphenyl)-4,5,6,7-tetrahydropyrazolo[1,5-a]pyrimidine-3-carboxamide] | > 10000 | > 10000 |
| > 75 | 10 to 50 | – | – | NC(=O)c1c(-c2ccc(Oc3ccccc3)cc2)nn2c1NCC[C@H]2C1CCN(C(=O)N2CCC(CCN3CCC(c4ccc5c(c4)CN(C4CCC(=O)NC4=O)C5=O)CC3)CC2)CC1 (stereo partly drawn) [Compound 302, (7S)-7-(1-(4-(2-(4-(2-(2,6-dioxopiperidin-3-yl)-1-oxoisoindolin-5-yl)piperidin-1-yl)ethyl)piperidine-1-carbonyl)piperidin-4-yl)-2-(4-phenoxyphenyl)-4,5,6,7-tetrahydropyrazolo[1,5-a]pyrimidine-3-carboxamide] | 1000 to 10000 | 1000 to 10000 |
| – | – | 10 to 50 | > 90 | Nc1ncnc2c1c(-c1ccc(Oc3ccccc3)cc1)nn2C1CCN(C2CCN(CCN3CCN(c4ccc(N5CCC(=O)NC5=O)cc4)CC3)CC2)CC1 [Compound 570, 1-(4-(4-(2-(4-(4-amino-3-(4-phenoxyphenyl)-1H-pyrazolo[3,4-d]pyrimidin-1-yl)-[1,4′-bipiperidin]-1′-yl)ethyl)piperazin-1-yl)phenyl)dihydropyrimidine-2,4(1H,3H)-dione] | 1000 to 10000 | 1000 to 10000 |
| > 90 | 10 to 50 | – | – | NC(=O)c1c(-c2ccc(Oc3ccccc3)cc2)nn2c1NCC[C@H]2C1CCN(C2CCN(CC3CCN(c4ccc5c(c4)CN(C4CCC(=O)NC4=O)C5=O)CC3)CC2)CC1 (stereo partly drawn) [Compound 322, (7S)-7-(1′-((1-(2-(2,6-dioxopiperidin-3-yl)-1-oxoisoindolin-5-yl)piperidin-4-yl)methyl)-[1,4′-bipiperidin]-4-yl)-2-(4-phenoxyphenyl)-4,5,6,7-tetrahydropyrazolo[1,5-a]pyrimidine-3-carboxamide] | 1000 to 10000 | 1000 to 10000 |
